Earlier results, collected in US20070072940A1, “Use of quinol derivatives thereof for cosmetic, dietary supplement or pharmaceutical compositions and compositions thereby obtained” (priority 2005, published 2007).

Experiments:
[1] = system: B. subtilis; details: in vitro
[2] = system: S. aureus; details: in vitro
[3] = system: fibrin; details: through an action on the polymerization of fibrin
[4] = system: free radical
[5] = system: skin trauma such as bruising or blemishes; details: applied topically
[6] = system: nutritional muscular dystrophy
[7] = results combined with previous research
[8] = system: low density lipoprotein lipids
[9] = system: lipid peroxidation in liposomes

In the case of `Cc1c(C)c2c(c(C)c1OP(=O)(O)O)CC[C@@](C)(CCC[C@H](C)CCC[C@H](C)CCCC(C)C)O2` [DL alpha tocopherol phosphate], the “antimicrobial action on B. subtilis” value [1] is listed as “antimicrobial action”, the “antimicrobial action on S. aureus” value [2] is listed as “antimicrobial action” and the anticoagulant action [3] is listed as “anticoagulant action”.

In the case of `C/C(=C\Cc1c(C)c(O)c2ccccc2c1O)CCC[C@H](C)CCC[C@H](C)CCCC(C)C` [Phylloquinol], the “free radical scavenging ability, comparison” value [4] is listed as “greater than that of alpha tocopherol quinol, plastoquinol, and alpha tocopherol”.

For `CC(C)=CCC/C(C)=C/CC/C(C)=C/CC/C(C)=C/CC/C(C)=C/CC/C(C)=C/CC/C(C)=C/CC/C(C)=C/CC/C(C)=C/Cc1cc(O)c(C)c(C)c1O` [Plastoquinol], the “free radical scavenging ability, comparison” value [4] is given as “greater than that of ubiquinol and alpha tocopherol”.

In the case of `CC1=C(C/C=C(\C)CCC[C@H](C)CCC[C@H](C)CCCC(C)C)C(=O)c2ccccc2C1=O` [Vitamin K, Phytonadione], the “reduction of severity of skin trauma” value [5] is listed as “ability to reduce the severity of skin trauma”.

For `Cc1c(C)c(O)c(CC[C@](C)(O)CCC[C@H](C)CCC[C@H](C)CCCC(C)C)c(C)c1O` [alpha tocopherol quinol], the “free radical scavenging ability, comparison” value [4] is listed as “greater than that of ubiquinol and alpha tocopherol”, the “prevention and treatment of nutritional muscular dystrophy” value ([6]; rabbit, injectable and oral) is listed as “could prevent and treat nutritional muscular dystrophy” and the “prevention of creatinuria and loss of weight caused by vitamin E deficiency” value ([6]; vitamin E deficiency) is listed as “could prevent creatinuria and loss of weight”. The toxicity [7] was “non-toxic”, the “interception of aqueous peroxyl radicals” value [8] was “directly intercepted aqueous peroxyl radicals” and the “reduction of lipoprotein ubiquinone to ubiquinol” value ([8]; associated with LDL) was “instantaneously reduce the lipoprotein ubiquinone to ubiquinol”. For the same compound, the “quenching of alpha tocopheroxyl radicals” value ([8]; in oxidizing LDL) was “rapidly quenched alpha tocopheroxyl radicals”, the “inhibition of radical initiated oxidation of low density lipoprotein lipids” value ([8]; in vitro) was “efficient multifunctional inhibitor” and the “inhibition of lipid peroxidation” value [9] was “shown to inhibit lipid peroxidation”. For the same compound, the “inhibition of lipid peroxidation in liposomes, comparison” value ([9]; liposomes, compared with alpha tocopherol quinone) was “superior inhibition of lipid peroxidation in liposomes”.

In the case of `CC1=C(C)C(=O)C(CC[C@](C)(O)CCC[C@H](C)CCC[C@H](C)CCCC(C)C)=C(C)C1=O` [alpha tocopherol quinone], the toxicity [7] is listed as “non-toxic” and the “inhibition of lipid peroxidation” value [9] is listed as “shown to inhibit lipid peroxidation”.

In the case of Menaquinol, the “free radical scavenging ability, comparison” value [4] is listed as “greater than that of alpha tocopherol quinol, plastoquinol, and alpha tocopherol”.
